US12440435B2, “Solubilization of poorly soluble cooling substances” (SYMRISE AG, priority 2018, dated 2025)

Test: Dissolving the cooling agent in a solvent with stepwise heating, then cooling to room temperature and observing crystallisation
Assay type: physicochemical

amount of cooling agent that can be dissolved (in 2-hydroxypropyl (2-isopropyl-5-methyl-cyclohexyl) carbonate, (2-isopropyl-5-methyl-cyclohexyl) 2-hydroxypropanoate or a mixture of both, based on the total weight of the composition): up to 12 % by weight
solubility in medium-chain triglycerides (medium-chain triglycerides as solvent, even at 60° C.): insoluble
SMILES: COc1ccc(NC(=O)[C@@H]2C[C@H](C)CC[C@H]2C(C)C)cc1 [(1R,2S,5R)-N-(4-methoxyphenyl)-5-methyl-2-(1-methylethyl)-cyclohexane-carboxamide]
